The record followed here is patent publication US12473305B2, “Pyrazole boronic acid compound, pharmaceutical composition containing same, and uses thereof” (BEIJING SONGRUN PHARMACEUTICAL TECHNOLOGY CO., LTD., priority 2020, dated 2025).

Structures can show the parent of a compound that is named as a salt.

Series [1] concerns human multiple myeloma RPMI 8226. Nature of the series: Pharmacodynamic study, RPMI 8226 subcutaneous xenograft. It counts as in vivo, female NOD/SCID mice. Conditions: positive control 0.5 mg/kg, twice a week, tail vein, day of the last administration. The procedure:
The anti-tumor effect in vivo was studied by using the tumor animal model obtained by subcutaneous xenotransplantation of cell lines into female NOD/SCID mice (purchased from Sipeifu Biotechnology Co., Ltd.).
RPMI 8226 cells were subcutaneously inoculated into NOD/SCID mice, and human multiple myeloma subcutaneously transplanted tumor model was successfully established 9 days after inoculating the cells. The test was divided into vehicle (0.3 mL DMSO, 0.27 mL Tween-80, 2.43 mL normal saline) control group, compound 30 low-dose group (20 mg/kg), compound 30 medium-dose group (30 mg/kg), compound 30 high-dose group (40 mg/kg), compound 39 low-dose group (5 mg/kg), compound 39 medium-dose group (10 mg/kg), and compound 39 high-dose group (15 mg/kg), and bortezomib (API purchased from Yangtze River Pharmaceutical) was used as the positive control group (0.5 mg/kg); 5 tumor-bearing mice established above in each group were administered by tail vein twice a week for nine times in total. The long diameter a (mm) of the tumor and the short diameter b (mm) of the tumor perpendicular to the long diameter were measured with digital electronic caliper twice a week. The calculation formula of tumor volume was: TV=ab^2/2; and the calculation formula of relative tumor volume was: RTV=Vt/Vo, Vo was the tumor volume measured when the mice in each group were divided into cages and administered for the first time (d1), and Vt was the tumor volume measured at the last administration. The animals were sacrificed 31 days (d22) after inoculation of RPMI 8226 cells, and weighed. The tumor mass was dissected and weighed, and the tumor inhibition rate was calculated according to the following formula: […]

Series [2] has as its system liver cancer cell line HepG2. As to the kind of experiment: CellTiter-Glo tumor cell proliferation, HepG2. The series is classed as cell-based, human. The procedure: (§1) The effect of compounds on tumor cell proliferation was detected by CellTiter-Glo method. Human melanoma cell line A375, non-small cell lung cancer cell line A549, human lung adenocarcinoma cell line H1299, colorectal cancer cell line HCT116, liver cancer cell line HepG2 and gastric cancer cell line MGC80-3 were cultured in vitro. The cells were collected after growing to the logarithmic growth phase, centrifuged at 1000 rpm for 5 min, and suspended in an appropriate amount of medium after discarding the supernatant, and the cell concentration was adjusted to 2×10^4/mL. The cell suspension was inoculated onto the 384-well cell culture plate, with 50 μL per well. After being cultured in a cell incubator (37° C., 5% CO2) for 24 h, 5 μL of drug diluted by the cell culture medium was added into each well for the treatment group. Each drug was provided in triplicate. After 72 h incubation in the incubator, 20 μL of CellTiter-Glo was added into each well, and the relative luminescence unit (RLU) was measured with Multimode Microplate Reader Varioskan Flash (Thermo Scientific, USA) after placed at 37° C. for 20 min, and compared with the RLU of the control group. SigmaPlot 10.0 software was used to calculate the inhibition rate and IC50 value.

The test system of series [3] is non-small cell lung cancer cell line A549. As to the kind of experiment: CellTiter-Glo tumor cell proliferation, A549. Conditions: Homo sapiens, A549, 72 h. It counts as cell-based, human. The protocol:
as §1

The test system of series [4] is Human melanoma cell line A375. As to the kind of experiment: CellTiter-Glo tumor cell proliferation, A375. The series is classed as cell-based. The conditions noted are these: Homo sapiens, A-375, 72 h; for IC50: CellTiter-Glo. The protocol: as §1
Series [5] concerns human lung adenocarcinoma cell line H1299. Nature of the series: CellTiter-Glo tumor cell proliferation, H1299. It counts as cell-based. The conditions noted are these: NCI-H1299, 72 h. The protocol:
as §1

The subject of series [6] is colorectal cancer cell line HCT116. Nature of the series: CellTiter-Glo tumor cell proliferation, HCT116. It counts as cell-based, human. The conditions noted are these: Homo sapiens, HCT-116, 72 h; for IC50: CellTiter-Glo. The procedure: as §1
Series [7] concerns human liver cancer Bel7404. Nature of the series: Antitumor activity in vivo, Bel7404 transplanted in nude mice. Also on record: species or system male BALB/c athymic nude mice. The conditions noted are these: 15 mg/kg. The protocol:
In the test, the Bel7404 models of human liver cancer transplanted into 6-week-old male BALB/c athymic nude mice (purchased from Shanghai Slac Laboratory Animal Co., Ltd.) with body weight of 18-20 g were used to study the anti-tumor effect of compound 30. The dose of compound 30 was 50 mg/kg (30H group), 25 mg/kg (30 M group) and 12.5 mg/kg (30 L group), respectively, and was injected intravenously twice a week for 5 times in total; at the same time, 5-FU was used as the control drug, which was injected intraperitoneally twice a week for 7 times in total (5 mice/group for the compound 30 administration group, 5 mice in 5 FU administration group; 8 mice were used as the mock group). The long diameter a (mm) and the vertical short diameter b (mm) of the tumor were measured twice a week with a digital electronic caliper. The tumor volume calculation formula was TV=ab^2/2; and the relative tumor volume calculation formula was RTV=Vt/Vo, wherein Vo was the tumor volume measured on the first day of administration (d1), and Vt was the tumor volume at each measurement. On the 22nd day of administration (d22), the animals were sacrificed and weighed. The tumor mass was dissected and weighed. The tumor inhibition rate (tumor inhibitory rate, %) was calculated according to the following formula: […]

For the compound `CC(C)C[C@H](NC(=O)[C@H](Cc1ccccc1)NC(=O)c1cnccn1)B(O)O` [bortezomib, reference compound], in series [1], the “Relative tumor volume (x ± S)” value is on record as 5.17 ± 0.98, the “T/C (%)” value is recorded as 55.41% and the “TGI (%)” value came to 44.59%. Moreover, the “Tumor volume (x ± S)” value in series [1] (in mm³ (unit assumed)) was 359.97 ± 65.13.
The compound `CC(C)C[C@H](NC(=O)Cn1nc(-c2cccc(OCCCN3CCN(c4ccccc4)CC3)c2)cc1-c1ccccc1)B(O)O` [Compound 40, (R)-(3-methyl-1-(2-(5-phenyl-3-(3-(3-(4-phenylpiperazin-1-yl)propoxy)phenyl)-1H-pyrazol-1-yl)acetamido)butyl)boronic acid dihydrochloride] yielded an IC50 in series [2] (Homo sapiens, HepG2, 72 h) of 101 nM.
Consider `CC(C)C[C@H](NC(=O)Cn1nc(-c2ccccc2OS(=O)(=O)c2cccc(C(F)(F)F)c2)cc1-c1ccccc1)B(O)O` [Compound 1, (R)-(3-methyl-1-(2-(5-phenyl-3-(2-(((3-(trifluoromethyl)phenyl)sulfonyl)oxy)phenyl)-1H-pyrazol-1-yl)acetamido)butyl)boronic acid], for which the inhibition at 1 µM in series [3] (1 μM, read-out: Inhibition rate A549 (%)) worked out at 11.9%; in series [4] (1 μM, read-out: Inhibition rate A375 (%)), 5.8%; in series [6] (1 μM, read-out: Inhibition rate HCT116 (%)) it was 13.1%. The inhibition at 10 µM in series [3] (10 μM, read-out: Inhibition rate A549 (%)) was determined as 66.4%; in series [4] (10 μM, read-out: Inhibition rate A375 (%)) it was 98.4%; in series [6] (10 μM, read-out: Inhibition rate HCT116 (%)), 98%. Further, the IC50 in series [4] was found to be 8910 nM; in series [5], 7190 nM; in series [6], 6530 nM.
The compound “((1R)-1-(2-(3-(3-(2-(S,R-2,6-dimethylmorpholino)ethoxy)phenyl)-5-phenyl-1H-pyrazol-1-yl)acetamido)-3-methylbutyl)boronic acid hydrochloride [Compound 38]” registered an IC50 in series [2] (72 h) of 126 nM.
Same read-out and setting: then “(R)-(3-methyl-1-(2-(5-phenyl-3-(3-((5-(4-phenylpiperazin-1-yl)pentyl)oxy)phenyl)-1H-pyrazol-1-acyl)acetamido)butyl)boronic acid dihydrochloride [Compound 42]”, with 121 nM.
For `O=c1[nH]cc(F)c(=O)[nH]1` [Compound 5FU, 5-FU, reference compound], the “RTV (d22)” value in series [7] (ip × 7) came to 2.78 ± 0.37. In series [7] (ip × 7, d22), the “Animal weight (g) (After tumor removal)” value was determined as 23.14 ± 0.58 g and the Inhibition rate % amounted to 53.77%.
Compound “((1R)-1-(2-(3-(3-(2-(S,S-2,6-dimethylmorpholino)ethoxy)phenyl)-5-phenyl-1H-pyrazol-1-yl)acetamido)-3-methylbutyl)boronic acid hydrochloride [Compound 37]” came in with an IC50 in series [2] (72 h) of 60 nM.
In series [2] (Homo sapiens, HepG2, 72 h), `CC(C)C[C@H](NC(=O)Cn1nc(-c2cccc(OCCCCN3CCN(c4ccccc4)CC3)c2)cc1-c1ccccc1)B(O)O` [Compound 41, (R)-(3-methyl-1-(2-(5-phenyl-3-(3-(4-(4-phenylpiperazin-1-yl)butoxy)phenyl)-1H-pyrazol-1-yl)acetamido)butyl)boronic acid dihydrochloride] had an IC50 of 123 nM.
Take `CC(C)C[C@H](NC(=O)Cn1nc(-c2cccc(OCCCN3CCOCC3)c2)cc1-c1ccccc1)B(O)O` [Compound 31, (R)-(3-methyl-1-(2-(3-(3-(3-morpholinopropoxy)phenyl)-5-phenyl-1H-pyrazol-1-yl)acetamido)butyl)boronic acid hydrochloride]: the IC50 is 2190 nM in series [3] (CellTiter-Glo), 690 nM in series [4] and 500 nM in series [6].
